{"source": "patent US20220370316A1", "about": "“BIOCIDE PRODUCT OF BROAD, CONTINUOUS AND PROLONGUED EFFECT BASED ON ETHANOL, BENZALKONIUM CHLORIDE AND COPPER NANOPARTICLES” (priority 2021, published 2022)", "origin": "cited, not measured here", "key": {"[1]": {"details": "after topical application"}, "[2]": {"test_system": "cutaneous bacteria", "details": "ethanol at 70% concentration, two minutes, skin kept in contact with the alcohol without drying"}}}
{"compound": "Alkyl-benzyl-dimethyl ammonium chloride [Benzalkonium chloride]", "values": [{"measurement": "time range of effectivity", "setting": "[1]", "value": "≤ 12", "unit": "h"}]}
{"compound": "CCO", "note": "[Ethanol, ethanol]", "values": [{"measurement": "cutaneous bacteria destroyed", "setting": "[2]", "value": "approximately 90%"}]}
